Experiment [1] addresses ATR/ATRIP complex (Homo sapiens (Human), UniProt Q13535). The experiment in a line: ATR/ATRIP enzymatic assay (Caliper-based). The format is biochemical. Particulars: FAM-labeled RAD17 peptide, ATP. Put shortly: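 FLAG-TEV-ATR/His6-ATRIP co-expressed in HEK293 and anti-FLAG purified. Compound preincubated 30 min at 28 °C with enzyme (2x solution 4 nM), then FAM-RAD17 peptide (2x solution 10 uM, 2 μM ATP) added for 6 h at 28 °C; HEPES pH 8, 10 mM MnCl2. Caliper conversion read-out, IC50 from four-parameter fit.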

Experiment [2] has as its system ATR-driven phosphorylation of Chk1 kinase at Serine 345 in HT-29 colorectal adenocarcinoma cells. Nature of the experiment: pCHK1 cellular assay (CHK1 p-Ser345 AlphaScreen SureFire). In kind it is cell-based. Particulars: Homo sapiens, HT-29, HT-29 cells, 4-nitroquinoline N-oxide 12 uM; read-out: Cell IC50 (pCHK1 IC50 values). In short, it runs like this: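 HT-29 cells seeded overnight, treated with 1:3 serially diluted compound for 90 minutes at 37° C., then 12 uM (final) 4-nitroquinoline N-oxide for 120 minutes. Lysates read for Chk1 p-Ser345 by AlphaScreen SureFire; IC50 from four-parameter logistic fit, normalized to DMSO (max) and 5 uM ATR inhibitor (min).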
(In Alpha technology, singlet oxygen from a donor bead excites a nearby acceptor bead.)

[3] abbreviates: read-out: ATR/ATRIP Enzyme IC50.
[4] abbreviates: estimated range, read-out: ATR/ATRIP Enzyme IC50 (estimated class).

IC50 data for 23 compounds are collected here from patent US10421765B2, “Tetrahydropyrido[4,3-d]pyrimidine inhibitors of ATR kinase” (Board of Regents, The University of Texas System, priority 2017, dated 2019).

The structures appear in SMILES notation. Like-named read-outs stand apart in the source and are kept apart here.

Sequence of ATR/ATRIP complex (Q13535 whole entry): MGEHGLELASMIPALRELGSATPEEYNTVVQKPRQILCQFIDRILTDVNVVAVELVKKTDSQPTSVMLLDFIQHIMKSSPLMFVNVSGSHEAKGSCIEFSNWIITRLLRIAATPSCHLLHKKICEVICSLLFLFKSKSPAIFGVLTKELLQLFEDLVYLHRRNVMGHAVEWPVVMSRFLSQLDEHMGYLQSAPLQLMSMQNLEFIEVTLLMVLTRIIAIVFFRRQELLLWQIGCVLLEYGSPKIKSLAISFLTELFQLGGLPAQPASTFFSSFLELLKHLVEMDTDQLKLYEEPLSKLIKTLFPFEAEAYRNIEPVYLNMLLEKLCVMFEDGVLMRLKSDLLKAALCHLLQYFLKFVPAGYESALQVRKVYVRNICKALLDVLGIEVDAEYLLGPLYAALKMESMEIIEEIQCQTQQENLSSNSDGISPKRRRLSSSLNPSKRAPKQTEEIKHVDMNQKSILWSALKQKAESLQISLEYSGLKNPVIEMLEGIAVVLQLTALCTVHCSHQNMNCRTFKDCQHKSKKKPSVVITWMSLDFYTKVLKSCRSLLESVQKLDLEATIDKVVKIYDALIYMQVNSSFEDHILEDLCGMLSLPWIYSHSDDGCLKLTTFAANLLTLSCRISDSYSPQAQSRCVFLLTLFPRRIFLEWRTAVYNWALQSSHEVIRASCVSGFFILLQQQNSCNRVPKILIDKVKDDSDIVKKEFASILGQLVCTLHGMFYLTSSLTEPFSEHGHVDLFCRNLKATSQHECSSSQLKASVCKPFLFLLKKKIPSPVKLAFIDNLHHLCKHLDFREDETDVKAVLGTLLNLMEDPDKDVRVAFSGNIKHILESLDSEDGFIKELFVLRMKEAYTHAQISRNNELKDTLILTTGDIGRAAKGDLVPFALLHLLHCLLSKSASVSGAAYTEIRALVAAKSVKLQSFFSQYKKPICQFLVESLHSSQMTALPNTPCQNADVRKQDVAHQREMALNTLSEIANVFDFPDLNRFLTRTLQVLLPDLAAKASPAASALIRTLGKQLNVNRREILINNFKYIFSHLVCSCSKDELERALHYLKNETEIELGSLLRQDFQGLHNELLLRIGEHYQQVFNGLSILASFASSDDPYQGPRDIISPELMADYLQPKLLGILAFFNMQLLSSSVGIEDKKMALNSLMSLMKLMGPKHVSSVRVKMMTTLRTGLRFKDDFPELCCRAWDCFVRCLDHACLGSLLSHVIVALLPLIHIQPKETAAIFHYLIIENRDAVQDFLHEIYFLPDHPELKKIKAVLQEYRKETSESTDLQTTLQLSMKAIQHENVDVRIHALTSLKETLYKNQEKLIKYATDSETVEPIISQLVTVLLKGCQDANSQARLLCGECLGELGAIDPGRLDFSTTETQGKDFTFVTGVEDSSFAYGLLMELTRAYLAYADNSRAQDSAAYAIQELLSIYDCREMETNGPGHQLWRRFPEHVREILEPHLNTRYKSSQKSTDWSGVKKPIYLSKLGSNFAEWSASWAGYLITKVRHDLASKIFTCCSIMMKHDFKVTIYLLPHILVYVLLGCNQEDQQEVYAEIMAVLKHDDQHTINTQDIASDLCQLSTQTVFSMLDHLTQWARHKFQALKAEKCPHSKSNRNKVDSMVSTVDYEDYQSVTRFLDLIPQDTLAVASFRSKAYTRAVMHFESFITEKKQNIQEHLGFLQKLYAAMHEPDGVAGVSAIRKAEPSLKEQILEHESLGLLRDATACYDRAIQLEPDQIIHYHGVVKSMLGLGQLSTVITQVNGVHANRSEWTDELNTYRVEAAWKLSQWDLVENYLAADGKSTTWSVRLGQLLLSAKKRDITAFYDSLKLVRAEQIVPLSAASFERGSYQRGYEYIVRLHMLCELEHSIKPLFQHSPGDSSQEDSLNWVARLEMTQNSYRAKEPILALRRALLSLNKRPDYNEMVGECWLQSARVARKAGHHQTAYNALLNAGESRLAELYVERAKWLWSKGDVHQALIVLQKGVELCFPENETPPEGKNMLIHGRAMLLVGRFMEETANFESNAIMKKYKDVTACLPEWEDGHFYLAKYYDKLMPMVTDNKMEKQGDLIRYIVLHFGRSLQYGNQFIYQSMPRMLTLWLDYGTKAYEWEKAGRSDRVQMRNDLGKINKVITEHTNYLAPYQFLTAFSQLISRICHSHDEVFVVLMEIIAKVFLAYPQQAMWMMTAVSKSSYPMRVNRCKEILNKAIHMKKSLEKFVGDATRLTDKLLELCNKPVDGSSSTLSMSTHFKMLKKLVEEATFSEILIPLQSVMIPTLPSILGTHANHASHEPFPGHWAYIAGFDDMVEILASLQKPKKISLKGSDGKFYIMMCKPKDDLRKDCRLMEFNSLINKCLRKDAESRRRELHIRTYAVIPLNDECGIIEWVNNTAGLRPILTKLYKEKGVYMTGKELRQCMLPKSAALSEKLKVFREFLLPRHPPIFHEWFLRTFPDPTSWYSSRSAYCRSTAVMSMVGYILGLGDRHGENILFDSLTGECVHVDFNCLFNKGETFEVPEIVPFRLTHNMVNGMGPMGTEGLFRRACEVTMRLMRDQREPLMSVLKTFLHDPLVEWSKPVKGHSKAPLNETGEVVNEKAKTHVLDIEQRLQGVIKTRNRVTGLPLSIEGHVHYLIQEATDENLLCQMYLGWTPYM
Sequence of ATR/ATRIP complex (Q8WXE1 whole entry partner): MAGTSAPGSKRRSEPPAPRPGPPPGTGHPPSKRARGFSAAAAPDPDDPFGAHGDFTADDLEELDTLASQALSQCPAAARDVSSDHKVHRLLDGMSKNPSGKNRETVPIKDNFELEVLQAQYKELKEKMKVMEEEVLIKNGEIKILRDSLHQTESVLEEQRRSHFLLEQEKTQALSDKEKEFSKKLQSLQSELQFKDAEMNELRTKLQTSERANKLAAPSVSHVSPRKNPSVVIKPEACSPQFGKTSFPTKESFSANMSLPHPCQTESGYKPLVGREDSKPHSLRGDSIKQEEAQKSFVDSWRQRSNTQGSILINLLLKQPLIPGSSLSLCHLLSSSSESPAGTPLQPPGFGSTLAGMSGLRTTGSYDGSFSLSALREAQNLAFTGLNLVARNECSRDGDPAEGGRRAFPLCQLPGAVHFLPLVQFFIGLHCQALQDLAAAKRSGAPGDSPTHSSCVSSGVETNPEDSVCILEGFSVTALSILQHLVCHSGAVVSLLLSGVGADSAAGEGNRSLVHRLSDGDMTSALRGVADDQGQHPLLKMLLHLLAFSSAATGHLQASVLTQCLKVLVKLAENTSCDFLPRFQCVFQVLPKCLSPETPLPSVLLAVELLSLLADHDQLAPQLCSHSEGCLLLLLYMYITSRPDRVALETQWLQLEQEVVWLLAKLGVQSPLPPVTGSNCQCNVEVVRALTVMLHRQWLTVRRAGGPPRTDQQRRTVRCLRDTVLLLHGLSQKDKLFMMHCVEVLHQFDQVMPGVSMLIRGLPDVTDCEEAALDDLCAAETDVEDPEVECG

`C[C@@H]1Cc2ncnc(N3CCC(O)CC3)c2CN1c1cc(Cl)nc2[nH]ccc12` [Example 12, (R)-1-(6-(6-Chloro-1H-pyrrolo[2,3-b]pyridin-4-yl)-7-methyl-5,6,7,8-tetrahydropyrido[4,3-d]pyrimidin-4-yl)piperidin-4-ol]: the IC50 in experiment [1] (setting [3]) amounted to 0.518 µM; in experiment [2] it was 0.028 µM.
The matching figures for `C[C@@H]1Cc2ncnc(N3CCC(S(C)(=O)=O)C3)c2CN1c1cc(Cl)nc2[nH]ccc12` (stereo partly drawn) [Example 41, (7R)-6-(6-chloro-1H-pyrrolo[2,3-b]pyridin-4-yl)-7-methyl-4-(3-(methylsulfonyl)pyrrolidin-1-yl)-5,6,7,8-tetrahydropyrido[4,3-d]pyrimidine]: 0.472 µM and 0.036 µM.
Take `C[C@@H]1Cc2ncnc(N3CCC34CN(S(C)(=O)=O)C4)c2CN1c1cc(Cl)nc2[nH]ccc12` [Example 37, (R)-6-(6-chloro-1H-pyrrolo[2,3-b]pyridin-4-yl)-7-methyl-4-(6-(methylsulfonyl)-1,6-diazaspiro[3.3]heptan-1-yl)-5,6,7,8-tetrahydropyrido[4,3-d] pyrimidine]: the IC50 in experiment [1] (setting [4]) was 1 to 10 µM; in experiment [2], 0.056 µM.
`C[C@@H]1Cc2ncnc(N3CCC(S(C)(=N)=O)CC3)c2CN1c1cc(Cl)nc2[nH]ccc12` (stereo partly drawn) [Example 58, (1-((R)-6-(6-chloro-1H-pyrrolo[2,3-b]pyridin-4-yl)-7-methyl-5,6,7,8-tetrahydropyrido[4,3-d]pyrimidin-4-yl)piperidin-4-yl)(imino)(methyl)-λ^6-sulfanone]: the values for the IC50 in experiment [1] (setting [3]) and in experiment [2] were 0.966 µM and 0.218 µM, respectively.
The matching figures for `C[C@@H]1Cc2ncnc(N3CC4CCC(C3)C4NS(C)(=O)=O)c2CN1c1ccnc2[nH]ccc12` (stereo partly drawn) [Example 69, N-(3-((R)-7-methyl-6-(1H-pyrrolo[2,3-b]-pyridin-4-yl)-5,6,7,8-tetrahydropyrido[4,3-d]-pyrimidin-4-yl)-3-aza-bicyclo[3.2.1]octan-8-yl)-methanesulfonamide]: 0.283 µM and 0.048 µM.
In the same order, the values of `CC1Cc2ncnc(C3CCN(S(C)(=O)=O)CC3)c2CN1c1ccnc2[nH]ccc12` (stereo not shown) [Example 4, 7-Methyl-4-(1-(methylsulfonyl)piperidin-4-yl)-6-(1H-pyrrolo[2,3-b]pyridin-4-yl)-5,6,7,8-tetrahydropyrido[4,3-d]pyrimidine bis(trifluoroacetate)] are 0.833 µM and 0.157 µM.
In the same order, the values of `C[C@@H]1Cc2ncnc(N3C[C@H]4CC[C@@H](C3)[C@@H]4NS(C)(=O)=O)c2CN1c1cc(Cl)nc2[nH]ccc12` [Example 38, N-((1R,5S)-(8-anti)-3-((R)-6-(6-chloro-1H-pyrrolo[2,3-b]pyridin-4-yl)-7-methyl-5,6,7,8-tetrahydropyrido[4,3-d]pyrimidin-4-yl)-3-azabicyclo[3.2.1]octan-8-yl)methanesulfonamide] are 0.929 µM and 0.083 µM.
For the compound `C[C@@H]1Cc2ncnc(N3CCC(C)(O)CC3)c2CN1c1cc(Cl)nc2[nH]ccc12` [Example 66, (R)-1-(6-(6-chloro-1H-pyrrolo[2,3-b]pyridin-4-yl)-7-methyl-5,6,7,8-tetrahydropyrido[4,3-d]-pyrimidin-4-yl)-4-methyl-piperidin-4-ol], the IC50 in experiment [1] (setting [3]) amounted to 0.584 µM; in experiment [2] it was 0.025 µM.
The matching figures for `C[C@@H]1Cc2ncnc(C3CCN(S(=O)(=O)C4CC4)CC3)c2CN1c1ccnc2[nH]ccc12` [Example 80, (R)-4-(1-(cyclopropyl-sulfonyl)piperidin-4-yl)-7-methyl-6-(1H-pyrrolo[2,3-b]pyridin-4-yl)-5,6,7,8-tetrahydro-pyrido[4,3-d]pyrimidine]: 1.09 µM and 0.132 µM.
The matching figures for `C[C@@H]1Cc2ncnc([C@H]3CCCN(S(C)(=O)=O)C3)c2CN1c1ccnc2[nH]ccc12` [Example 50b, (R)-7-methyl-4-((S)-1-(methylsulfonyl)piperidin-3-yl)-6-(1H-pyrrolo[2,3-b]pyridin-4-yl)-5,6,7,8-tetrahydropyrido[4,3-d]pyrimidine]: 4.79 µM and 0.579 µM.
For the compound `CS(=O)(=O)N1CCC(c2ncnc3c2CN(c2ccnc4[nH]ccc24)CC3)CC1` [Example 2, 4-(1-(Methylsulfonyl)piperidin-4-yl)-6-(1H-pyrrolo[2,3-b]pyridin-4-yl)-5,6,7,8-tetrahydropyrido[4,3-d]pyrimidine bis(trifluoroacetate)], the IC50 was 1 to 10 µM in experiment [1] (setting [4]) and 1.94 µM in experiment [2].
For the compound `C[C@@H]1Cc2ncnc(N3CCN(S(C)(=O)=O)CC3)c2CN1c1cc(Cl)nc2[nH]ccc12` [Example 20, 1-[(7R)-6-{6-chloro-1H-pyrrolo[2,3-b]pyridin-4-yl}-7-methyl-5H,6H,7H,8H-pyrido[4,3-d]pyrimidin-4-yl]-4-methanesulfonyl-piperazine], the IC50 in experiment [1] (setting [4]) was 1 to 10 µM; in experiment [2] it was 0.097 µM.
For `C[C@@H]1Cc2ncnc(N3CCCC(C#N)C3)c2CN1c1ccnc2[nH]ccc12` (stereo partly drawn) [Example 83, 1-((R)-7-methyl-6-(1H-pyrrolo[2,3-b]pyridin-4-yl)-5,6,7,8-tetrahydro-pyrido[4,3-d]pyrimidin-4-yl)piperidine-3-carbonitrile], the IC50 in experiment [1] (setting [3]) came out at 0.364 µM; in experiment [2], 0.056 µM.
Consider `CS(=O)(=O)N1CCC(c2ncnc3c2CN(c2ccnc4[nH]ccc24)[C@@H](CF)C3)CC1` [Example 52a, (R)-7-(fluoromethyl)-4-(1-(methylsulfonyl)piperidin-4-yl)-6-(1H-pyrrolo[2,3-b]pyridin-4-yl)-5,6,7,8-tetrahydropyrido[4,3-d]pyrimidine], for which the IC50 in experiment [1] (setting [3]) amounted to 30 µM; in experiment [2] it was 10 µM.
Turning to `C[C@@H]1Cc2ncnc(N3C[C@H]4CC[C@@H](C3)C4NC(=O)CC(F)(F)F)c2CN1c1cc(Cl)nc2[nH]ccc12` (stereo partly drawn) [Example 26, N-{3-[(7R)-6-{6-chloro-1H-pyrrolo[2,3-b]pyridin-4-yl}-7-methyl-5H,6H,7H,8H-pyrido[4,3-d]pyrimidin-4-yl]-3-aza-bicyclo[3.2.1]octan-8-yl}-3,3-trifluoro-propanamide], the IC50 in experiment [1] (setting [4]) was 1 to 10 µM; in experiment [2] it was 0.088 µM.
Consider `C[C@@H]1Cc2ncnc(N3CC(C#N)C3)c2CN1c1cc(Cl)nc2[nH]ccc12` [Example 79, (R)-1-(6-(6-chloro-1H-pyrrolo[2,3-b]pyridin-4-yl)-7-methyl-5,6,7,8-tetrahydropyrido[4,3-d]-pyrimidin-4-yl)azetidine-3-carbonitrile], for which the results for the IC50 in experiment [1] (setting [3]) and in experiment [2] were 0.103 µM and 0.014 µM, respectively.
In the same order, the values of `Cc1cc2c(N3Cc4c(ncnc4C4CCN(S(C)(=O)=O)CC4)C[C@H]3C)ccnc2[nH]1` [Example 94, (R)-7-methyl-6-(2-methyl-1H-pyrrolo[2,3-b]pyridin-4-yl)-4-(1-(methylsulfonyl)piperidin-4-yl)-5,6,7,8-tetrahydro-pyrido[4,3-d]pyrimidine] are 0.051 µM and 0.098 µM.
With `C[C@@H]1Cc2ncnc(N3CC(S(C)(=O)=O)C3)c2CN1c1cc(Cl)nc2[nH]ccc12` [Example 32, 1-[(7R)-6-{6-chloro-1H-pyrrolo[2,3-b]pyridin-4-yl}-7-methyl-5H,6H,7H,8H-pyrido[4,3-d]pyrimidin-4-yl]-3-methanesulfonylazetidine], the IC50 in experiment [1] (setting [3]) stood at 0.223 µM; in experiment [2], 0.021 µM.
Regarding `COC(=O)[C@@H]1CCCN(c2ncnc3c2CN(c2cc(Cl)nc4[nH]ccc24)[C@H](C)C3)C1` [Example 62, Methyl (R)-1-((R)-6-(6-chloro-1H-pyrrolo[2,3-b]pyridin-4-yl)-7-methyl-5,6,7,8-tetrahydropyrido-[4,3-d]pyrimidin-4-yl)-piperidine-3-carboxylate], the IC50 was determined as 0.253 µM in experiment [1] (setting [3]) and 0.138 µM in experiment [2].
Turning to `CCOc1cc(N2Cc3c(ncnc3C3CCN(S(C)(=O)=O)CC3)C[C@H]2CF)c2cc[nH]c2n1` [Example 55b, (S)-6-(6-ethoxy-1H-pyrrolo[2,3-b]pyridin-4-yl)-7-(fluoromethyl)-4-(1-(methylsulfonyl)piperidin-4-yl)-5,6,7,8-tetrahydropyrido[4,3-d]pyrimidine], the results for the IC50 in experiment [1] (setting [3]) and in experiment [2] were 0.311 µM and 0.03 µM, respectively.
In the same order, the values of `C[C@@H]1Cc2ncnc(C3CCN(S(C)(=O)=O)CC3)c2CN1c1ccnc2[nH]ccc12` [Example 6, (R)-7-Methyl-4-(1-(methylsulfonyl)piperidin-4-yl)-6-(1H-pyrrolo[2,3-b]pyridin-4-yl)-5,6,7,8-tetrahydropyrido[4,3-d]pyrimidine bis(trifluoroacetate)] are 0.499 µM and 0.052 µM.
The matching figures for `C[C@@H]1Cc2ncnc(N3CCC(C#N)CC3)c2CN1c1ccnc2[nH]ccc12` [Example 82, (R)-1-(7-methyl-6-(1H-pyrrolo[2,3-b]pyridin-4-yl)-5,6,7,8-tetrahydro-pyrido[4,3-d]pyrimidin-4-yl)piperidine-4-carbonitrile]: 0.796 µM and 0.079 µM.
In the same order, the values of `CNC(=O)[C@H]1CCCN(c2ncnc3c2CN(c2cc(Cl)nc4[nH]ccc24)[C@H](C)C3)C1` [Example 67, (S)-1-((R)-6-(6-chloro-1H-pyrrolo[2,3-b]pyridin-4-yl)-7-methyl-5,6,7,8-tetrahydropyrido[4,3-d]-pyrimidin-4-yl)-N-methylpiperidine-3-carboxamide] are 0.14 µM and 0.009 µM.
